Experimental data taken from patent US7566530B2 (priority 2004, dated 2009).
Like-named read-outs stand apart in the source and are kept apart here.

Experiments:
[1] = test system: PrP^sc; type: biochemical, bovine; details: for location of PrP^sc bands (starting supernatant or pellet) after centrifugation: 2.5, 5, 10 mg added to 50 μl PrP^sc sample, 37° C. 1 h; for location of PrP^sc bands (starting supernatant or pellet) after centrifugation / crosslinking and precipitation of PrP: FIG. 4; for crosslinking and precipitation of PrP: simple centrifuge, no ultracentrifugation
[2] = test system: PrP^res; type: biochemical, human

Molecule: NCCCNCCCN [bis-3-aminopropylamine]
- apparent molecular mass of the prion protein bands compared to a control without molecule ([1]; 130-1040 μg added to 5 μl PrP^sc, 30 min room temperature, pellet supernatant, FIG. 6): induces an increase in the apparent molecular mass of the 3 prion protein bands
- precipitation of the prion protein on centrifugation ([1]; 130-1040 μg, 12 000 rpm 5 min, FIG. 6): the prion protein precipitates

Molecule: CN[C@@H]1[C@H](O[C@H]2[C@H](O[C@H]3[C@H](O)[C@@H](O)[C@H](NC(=N)N)[C@@H](O)[C@@H]3NC(=N)N)O[C@@H](C)[C@]2(O)CO)O[C@@H](CO)[C@H](O)[C@H]1O [dihydrostreptomycin sesquisulfate]
- location of PrP^sc bands (starting supernatant or pellet) after centrifugation ([1]; 12 000 rpm 5 min): the PrP^sc material is found in the pellet
- crosslinking and precipitation of PrP [1]: induces crosslinking of PrP which allows complete precipitation thereof

Molecule: [H]/N=C(/N)N[C@H]1[C@H](O)[C@@H](O)[C@H](O[C@@H]2O[C@@H](C)[C@](O)(C=O)[C@H]2O[C@@H]2O[C@@H](CO)[C@H](O)[C@@H](O)[C@@H]2NC)[C@@H](N/C(N)=N\[H])[C@@H]1O [streptomycin]
- location of PrP^sc bands (starting supernatant or pellet) after centrifugation ([1]; 12 000 rpm 5 min): the PrP^sc material is found in the pellet
- crosslinking and precipitation of PrP [1]: induces crosslinking of PrP which allows complete precipitation thereof

Molecule: NCCNCCNCCN [triethylenetetramine]
- apparent molecular mass of the prion protein bands compared to a control without molecule ([1]; 105-840 μg TET added to 5 μl PrP^sc (250 μg brain), supernatant, FIG. 5): induces an increase in the apparent molecular mass of the prion protein
- crosslinking of PrP versus dose ([1]; 105-840 μg TET, FIG. 5): a crosslinking of PrP proportional to the dose of TET

Molecule: heparin
- sensitivity and specificity of detection of PrP^res of lymphoid origin in blood samples [2]: confirms the sensitivity and the specificity of detection of PrP^res
